Patent publication US20240383901A1, “SUBSTITUTED PYRROLO[2,3-D]PYRIMIDINES, THEIR PREPARATION AND THEIR THERAPEUTIC APPLICATION” (SANOFI, priority 2021, published 2024)
pIC50: −log10 of the molar value.

Columns and labels:
full-length LRRK2 G2019S = target: T1, full-length LRRK2 G2019S (Homo sapiens, UniProt Q5S007, G2019S); assay: LRRK2-G2019S kinase activity assay (Lanthascreen TR-FRET); assay type: biochemical; conditions: 1.1 mM ATP
T1 construct: DYKDDDDK (FLAG)

[1] = target: T2, full-length LRRK2 wild type (Homo sapiens, UniProt Q5S007); assay: LRRK2 WT assay (Assay A, Lanthascreen TR-FRET, 500 uM ATP); assay type: biochemical; conditions: Assay A (values without *)
T2 construct: DYDDDDK tagged full-length LRRK2 wild type is used
T2 sequence (Q5S007 whole entry): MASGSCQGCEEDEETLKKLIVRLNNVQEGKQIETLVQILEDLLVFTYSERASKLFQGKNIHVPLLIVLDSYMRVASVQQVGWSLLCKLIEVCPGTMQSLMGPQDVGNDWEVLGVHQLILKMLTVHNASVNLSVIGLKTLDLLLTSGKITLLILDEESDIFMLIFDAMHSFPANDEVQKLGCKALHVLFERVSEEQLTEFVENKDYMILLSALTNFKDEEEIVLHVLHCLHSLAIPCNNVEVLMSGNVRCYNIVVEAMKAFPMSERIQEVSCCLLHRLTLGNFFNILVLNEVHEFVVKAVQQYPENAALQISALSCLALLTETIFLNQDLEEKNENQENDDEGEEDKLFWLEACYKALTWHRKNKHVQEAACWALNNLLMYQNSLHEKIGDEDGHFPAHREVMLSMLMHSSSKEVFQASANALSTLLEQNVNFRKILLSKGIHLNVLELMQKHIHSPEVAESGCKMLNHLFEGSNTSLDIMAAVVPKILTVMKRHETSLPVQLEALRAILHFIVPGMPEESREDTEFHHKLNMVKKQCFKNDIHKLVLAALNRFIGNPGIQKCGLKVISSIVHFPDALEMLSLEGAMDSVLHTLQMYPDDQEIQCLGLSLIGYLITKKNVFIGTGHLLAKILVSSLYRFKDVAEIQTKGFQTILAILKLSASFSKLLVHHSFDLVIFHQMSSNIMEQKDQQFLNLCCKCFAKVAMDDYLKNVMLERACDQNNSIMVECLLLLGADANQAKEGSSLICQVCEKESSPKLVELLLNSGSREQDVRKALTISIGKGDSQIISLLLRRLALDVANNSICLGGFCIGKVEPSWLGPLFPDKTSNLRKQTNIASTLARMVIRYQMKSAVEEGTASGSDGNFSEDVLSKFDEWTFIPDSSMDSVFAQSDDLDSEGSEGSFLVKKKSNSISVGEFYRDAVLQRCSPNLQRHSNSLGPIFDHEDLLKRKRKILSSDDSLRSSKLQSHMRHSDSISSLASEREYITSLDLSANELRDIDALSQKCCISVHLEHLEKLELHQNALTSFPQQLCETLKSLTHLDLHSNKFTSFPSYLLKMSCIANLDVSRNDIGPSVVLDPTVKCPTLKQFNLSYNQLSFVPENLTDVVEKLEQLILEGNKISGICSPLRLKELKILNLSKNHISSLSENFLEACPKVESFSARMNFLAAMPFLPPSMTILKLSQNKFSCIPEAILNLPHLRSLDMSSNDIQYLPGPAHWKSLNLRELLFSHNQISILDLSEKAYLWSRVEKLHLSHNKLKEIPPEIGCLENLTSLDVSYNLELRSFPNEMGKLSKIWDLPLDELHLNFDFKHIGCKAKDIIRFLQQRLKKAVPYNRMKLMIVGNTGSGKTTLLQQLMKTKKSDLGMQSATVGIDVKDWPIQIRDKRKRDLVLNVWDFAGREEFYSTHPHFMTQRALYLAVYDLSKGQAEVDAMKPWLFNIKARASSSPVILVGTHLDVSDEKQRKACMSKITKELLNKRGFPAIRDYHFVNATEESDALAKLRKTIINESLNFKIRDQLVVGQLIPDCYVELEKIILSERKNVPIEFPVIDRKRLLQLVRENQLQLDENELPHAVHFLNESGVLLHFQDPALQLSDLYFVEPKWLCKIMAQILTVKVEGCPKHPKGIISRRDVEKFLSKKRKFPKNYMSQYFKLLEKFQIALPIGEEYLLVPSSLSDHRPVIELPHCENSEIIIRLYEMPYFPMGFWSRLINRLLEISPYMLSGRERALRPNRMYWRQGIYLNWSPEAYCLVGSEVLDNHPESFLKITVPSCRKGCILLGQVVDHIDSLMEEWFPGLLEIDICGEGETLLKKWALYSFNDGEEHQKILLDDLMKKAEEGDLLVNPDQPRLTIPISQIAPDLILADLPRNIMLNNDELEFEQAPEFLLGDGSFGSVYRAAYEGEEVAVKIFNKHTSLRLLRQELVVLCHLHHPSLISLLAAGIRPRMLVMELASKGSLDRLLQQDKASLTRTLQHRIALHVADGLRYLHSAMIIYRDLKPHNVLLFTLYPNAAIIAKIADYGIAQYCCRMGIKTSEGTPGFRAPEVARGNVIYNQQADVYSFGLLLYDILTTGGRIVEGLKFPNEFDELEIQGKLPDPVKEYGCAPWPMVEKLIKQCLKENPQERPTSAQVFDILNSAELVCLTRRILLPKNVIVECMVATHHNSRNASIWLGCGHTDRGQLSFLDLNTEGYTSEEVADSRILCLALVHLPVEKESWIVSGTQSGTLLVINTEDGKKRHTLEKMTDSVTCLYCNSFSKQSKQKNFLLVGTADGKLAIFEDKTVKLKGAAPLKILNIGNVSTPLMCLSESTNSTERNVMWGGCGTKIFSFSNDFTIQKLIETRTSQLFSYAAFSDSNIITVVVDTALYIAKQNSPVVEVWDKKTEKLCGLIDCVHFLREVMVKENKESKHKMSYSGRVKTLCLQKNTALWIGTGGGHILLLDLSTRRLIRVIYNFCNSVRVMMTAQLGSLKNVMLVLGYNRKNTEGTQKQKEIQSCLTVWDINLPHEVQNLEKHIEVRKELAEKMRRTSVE

T1 sequence (Q5S007 whole entry G2019S): as the sequence (Q5S007 whole entry) above, with G2019S counted along it

How did the pIC50 (full-length LRRK2 G2019S) turn out when C[C@H]1COC[C@@H]1n1c(C#N)cc2cnc(Nc3cn(C(C)(C)C#N)nc3OC3COC3)nc21 [Example 27, 2-((1-(2-Cyanopropan-2-yl)-3-(oxetan-3-yloxy)-1H-pyrazol-4-yl)amino)-7-((3R,4R)-4-methyltetrahydrofuran-3-yl)-7H-pyrrolo[2,3-d]pyrimidine-6-carbonitrile] was run?
Its pIC50 is 9.00.

What about the pIC50 [1] of the same compound?
The pIC50 was 9.00.

How did the pIC50 (full-length LRRK2 G2019S) turn out when [2H]C([2H])([2H])n1cc(Nc2ncc3cc(C#N)n([C@H]4COC[C@@H]4C)c3n2)c(OC2CC2)n1 [Example 28, 2-((3-Cyclopropoxy-1-(methyl-d3)-1H-pyrazol-4-yl)amino)-7-((3R,4R)-4-methyltetrahydrofuran-3-yl)-7H-pyrrolo[2,3-d]pyrimidine-6-carbonitrile] was run?
Its pIC50 is 8.52.

And the pIC50 [1]?
Its pIC50 is 8.52.

With CC(C)Oc1nn(C(C)(C)C#N)cc1Nc1ncc2cc(C#N)n([C@H]3COC[C@@H]3C)c2n1 [Example 29, 2-((1-(2-Cyanopropan-2-yl)-3-isopropoxy-1H-pyrazol-4-yl)amino)-7-((3R,4R)-4-methyltetrahydrofuran-3-yl)-7H-pyrrolo[2,3-d]pyrimidine-6-carbonitrile] as the compound, how does the pIC50 (full-length LRRK2 G2019S) read?
The pIC50 was 9.00.

And the pIC50 [1]?
Its pIC50 is 9.00.

C[C@H]1COC[C@@H]1n1c(C#N)cc2cnc(Nc3cn(C4COC4)nc3OC3CC3)nc21 [Example 30, 2-((3-Cyclopropoxy-1-(oxetan-3-yl)-1H-pyrazol-4-yl)amino)-7-((3R,4R)-4-methyltetrahydrofuran-3-yl)-7H-pyrrolo[2,3-d]pyrimidine-6-carbonitrile] was tested. Which pIC50 (full-length LRRK2 G2019S) did it give?
Its pIC50 is 8.52.

And the pIC50 [1]?
The pIC50 was 8.30.

How did the pIC50 (full-length LRRK2 G2019S) turn out when CC(C)Oc1nn(C2COC2)cc1Nc1ncc2cc(C#N)n([C@H]3COC[C@@H]3C)c2n1 [Example 31, 2-((3-Isopropoxy-1-(oxetan-3-yl)-1H-pyrazol-4-yl)amino)-7-((3R,4R)-4-methyltetrahydrofuran-3-yl)-7H-pyrrolo[2,3-d]pyrimidine-6-carbonitrile] was run?
The pIC50 was 8.70.

And the pIC50 [1]?
The pIC50 was 8.70.

Which results are given for C[C@H]1COC[C@@H]1n1c(C#N)cc2cnc(Nc3cn(C)nc3OCC(C)(C)O)nc21 [Example 32, 2-((3-(2-Hydroxy-2-methylpropoxy)-1-methyl-1H-pyrazol-4-yl)amino)-7-((3R,4R)-4-methyltetrahydrofuran-3-yl)-7H-pyrrolo[2,3-d]pyrimidine-6-carbonitrile]?
pIC50 (full-length LRRK2 G2019S): 8.15; pIC50 [1]: 8.15

What does the source list for COCn1cc(Nc2ncc3cc(C#N)n([C@H]4COC[C@@H]4C)c3n2)c(OC2COC2)n1 [Example 33, 2-((1-(Methoxymethyl)-3-(oxetan-3-yloxy)-1H-pyrazol-4-yl)amino)-7-((3R,4R)-4-methyltetrahydrofuran-3-yl)-7H-pyrrolo[2,3-d]pyrimidine-6-carbonitrile]?
pIC50 (full-length LRRK2 G2019S): 8.05; pIC50 [1]: 7.85

With C[C@H]1COC[C@@H]1n1c(C#N)cc2cnc(Nc3cn(S(C)(=O)=O)nc3OC3COC3)nc21 [Example 34, 2-((1-(Methylsulfonyl)-3-(oxetan-3-yloxy)-1H-pyrazol-4-yl)amino)-7-((3R,4R)-4-methyltetrahydrofuran-3-yl)-7H-pyrrolo[2,3-d]pyrimidine-6-carbonitrile] as the compound, how does the pIC50 (full-length LRRK2 G2019S) read?
The pIC50 was 8.30.

What about the pIC50 [1] of the same compound?
The pIC50 was 8.15.

COCn1cc(Nc2ncc3cc(C#N)n([C@H]4COC[C@@H]4C)c3n2)c(OC2CC2)n1 [Example 35, 2-((3-Cyclopropoxy-1-(methoxymethyl)-1H-pyrazol-4-yl)amino)-7-((3R,4R)-4-methyltetrahydrofuran-3-yl)-7H-pyrrolo[2,3-d]pyrimidine-6-carbonitrile] was tested. Which pIC50 (full-length LRRK2 G2019S) did it give?
Its pIC50 is 8.22.

And the pIC50 [1]?
The pIC50 was 8.40.

What does the source list for C[C@H]1COC[C@@H]1n1c(C#N)cc2cnc(Nc3cn(CS(C)(=O)=O)nc3OC3CC3)nc21 [Example 36, 2-((3-Cyclopropoxy-1-((methylsulfonyl)methyl)-1H-pyrazol-4-yl)amino)-7-((3R,4R)-4-methyltetrahydrofuran-3-yl)-7H-pyrrolo[2,3-d]pyrimidine-6-carbonitrile]?
pIC50 (full-length LRRK2 G2019S): 9.00; pIC50 [1]: 9.00

Which results are given for C[C@H]1COC[C@@H]1n1c(C#N)cc2cnc(Nc3cn(C4CC4)nc3OC3COC3)nc21 [Example 37, 2-((1-Cyclopropyl-3-(oxetan-3-yloxy)-1H-pyrazol-4-yl)amino)-7-((3R,4R)-4-methyltetrahydrofuran-3-yl)-7H-pyrrolo[2,3-d]pyrimidine-6-carbonitrile]?
pIC50 (full-length LRRK2 G2019S): 8.22; pIC50 [1]: 8.10

How did the pIC50 (full-length LRRK2 G2019S) turn out when CCn1cc(Nc2ncc3cc(C#N)n([C@H]4COC[C@@H]4C)c3n2)c(OC2COC2)n1 [Example 38, 2-((1-Ethyl-3-(oxetan-3-yloxy)-1H-pyrazol-4-yl)amino)-7-((3R,4R)-4-methyltetrahydrofuran-3-yl)-7H-pyrrolo[2,3-d]pyrimidine-6-carbonitrile] was run?
Its pIC50 is 8.30.

What about the pIC50 [1] of the same compound?
The pIC50 was 8.22.

C[C@H]1COC[C@@H]1n1c(C#N)cc2cnc(Nc3cn(C)nc3OC3CCC34COC4)nc21 (stereo partly drawn) [Example 40, 2-[[1-methyl-3-[(2-oxaspiro[3.3]heptan-7-yl)oxy]pyrazol-4-yl]amino]-7-[(3R,4R)-4-methyltetrahydrofuran-3-yl]pyrrolo[2,3-d]pyrimidine-6-carbonitrile] was tested. Which pIC50 (full-length LRRK2 G2019S) did it give?
The pIC50 was 9.00.

What about the pIC50 [1] of the same compound?
The pIC50 was 9.00.

How did the pIC50 (full-length LRRK2 G2019S) turn out when C[C@H]1COC[C@@H]1n1c(C#N)cc2cnc(Nc3ccc(CN(C)C)cc3OC3CC3)nc21 [Example 41, 2-((2-Cyclopropoxy-4-((dimethylamino)methyl)phenyl)amino)-7-((3R,4R)-4-methyltetrahydrofuran-3-yl)-7H-pyrrolo[2,3-d]pyrimidine-6-carbonitrile] was run?
Its pIC50 is 8.52.

And the pIC50 [1]?
The pIC50 was 8.40.

Which results are given for [2H]C([2H])([2H])n1cc(Nc2ncc3cc(C#N)n([C@H]4COC[C@@H]4C)c3n2)c(OC(C)C)n1 [Example 42, 2-((3-Isopropoxy-1-(methyl-d3)-1H-pyrazol-4-yl)amino)-7-((3R,4R)-4-methyltetrahydrofuran-3-yl)-7H-pyrrolo[2,3-d]pyrimidine-6-carbonitrile]?
pIC50 (full-length LRRK2 G2019S): 8.70; pIC50 [1]: 9.00

How did the pIC50 (full-length LRRK2 G2019S) turn out when C[C@@H]1COC[C@H]1n1c(C#N)cc2cnc(Nc3cn(C)nc3OC3COC3)nc21 [Example 44, 2-((1-Methyl-3-(oxetan-3-yloxy)-1 H-pyrazol-4-yl)amino)-7-((3S,4S)-4-methyltetrahydrofuran-3-yl)-7H-pyrrolo[2,3-d]pyrimidine-6-carbonitrile] was run?
The pIC50 was 6.72.

And the pIC50 [1]?
The pIC50 was 6.71.

With CO[C@H]1COC[C@H]1n1c(C#N)cc2cnc(Nc3ccc(C(C)(C)O)cc3OC3COC3)nc21 [Example 55, 2-((4-(2-Hydroxypropan-2-yl)-2-(oxetan-3-yloxy)phenyl)amino)-7-((3R,4R)-4-methoxytetrahydrofuran-3-yl)-7H-pyrrolo[2,3-d]pyrimidine-6-carbonitrile] as the compound, how does the pIC50 (full-length LRRK2 G2019S) read?
The pIC50 was 7.74.

And the pIC50 [1]?
Its pIC50 is 7.39.

How did the pIC50 (full-length LRRK2 G2019S) turn out when CC(C)Oc1nn(C(C)(C)C#N)cc1Nc1ncc2cc(C#N)n(C3COC3)c2n1 [Example 74, 2-((1-(2-Cyanopropan-2-yl)-3-isopropoxy-1H-pyrazol-4-yl)amino)-7-(oxetan-3-yl)-7H-pyrrolo[2,3-d]pyrimidine-6-carbonitrile] was run?
The pIC50 was 7.85.

And the pIC50 [1]?
Its pIC50 is 7.70.

Which results are given for [2H]C([2H])([2H])n1cc(Nc2ncc3cc(C#N)n([C@@H](C)COC)c3n2)c(OC2COC2)n1 [Example 91, 7-[(2S)-1-Methoxypropan-2-yl]-2-[[3-(oxetan-3-yloxy)-1-(methyl-d3)pyrazol-4-yl]amino]pyrrolo[2,3-d]pyrimidine-6-carbonitrile]?
pIC50 (full-length LRRK2 G2019S): 8.15; pIC50 [1]: 7.89
